From patent US20260324636A1, “COMPOSITION FOR PROVIDING PLANT WITH STRESS RESISTANCE” (KIRIN HOLDINGS KABUSHIKI KAISHA, priority 2022, published 2026)

Key:
[1] = system: OsZAT12; assay: OsZAT12 gene expression by real-time PCR, Example 12; format: in vivo, rice; details: Oryza sativa; 0.5 mM in medium, 30° C. for 2 hours, aboveground part; read-out: OsZAT12 expression level, increase vs control
Text: In order to design primers for the target genes necessary for gene expression analysis by real-time PCR, homologs of Arabidopsis thaliana high-temperature-responsive genes in rice were searched for. The amino acid sequence of Arabidopsis thaliana ZAT12 (AGI code: AT5G59820) was obtained from TAIR (https://www.arabidopsis.org/), and the nucleotide sequence of the homolog was obtained using RAP-DB (https://rapdb.dna.affrc.go.jp/). As a reference gene, the nucleotide sequence of the homolog of Arabidopsis thaliana ACTIN2 (AGI code: AT3G18780) was also obtained. Homolog genes in rice were designated as OsZAT12 and OsACT1, respectively.
The materials as employed in Example 3 were used.
The method as employed in Example 3 was employed.
The rice samples subjected to germination for 3 days were inoculated into a liquid medium consisting of a ½ Murashige and Skoog Plant Salt Mixture. Specifically, a liquid medium was dispensed at 3 ml/well to a 12-well microplate (IWAKI), and 3 samples were transferred to each well. N-acetylglutamic acid was applied to each well to the final concentration of 0.5 mM in the medium, incubation was performed at 30° C. for 2 hours, and RNA was extracted from the aboveground part using the RNeasy Plant Mini Kit. […]
Thereafter, the relative expression level of the target gene upon N-acetylglutamic acid treatment was calculated by the ΔΔCt method.

[2] = system: ZAT10; assay: ZAT10 gene expression by real-time PCR, Example 11; format: in vivo; details: Arabidopsis thaliana; 0.4 mM, 22° C. for 2 hours; read-out: ZAT10 expression level, increase vs control
Description: (§1) The materials as used in Example 1 were used.
(§2) The medium as used in Example 1 was used.
(§3) To the Arabidopsis thaliana plants grown for 7 days in the same manner as in Example 1, 0.4 mM N-acetylglutamic acid or an equivalent amount of sterile water was added, and the plants were incubated at 22° C. for 2 hours. After incubation for 2 hours, the samples were frozen with liquid nitrogen, and RNA was extracted using the RNeasy Plant Mini Kit […].
(§4) cDNA that would be necessary as a real-time PCR template was synthesized from the RNA obtained. 1000 ng total RNA was used for each sample, and cDNA was synthesized using the Verso cDNA Synthesis Kit (Thermo Fischer Scientific). The synthesized cDNA was diluted to 5-fold with sterile distilled water and subjected to real-time PCR. For real-time PCR, a reaction solution containing ZAT10 (AGI code: AT1G27730) and ZAT12 (AGI code: AT5G59820) as the target genes, PP2AA3 (AGI code: AT1G13320) as the reference gene, and TB Green Ex Taq II (TakaRa) was prepared. PCR was performed with the use of the LightCycler® 480 System (Roche) with the number of amplification cycles of 50. The primers shown below were used.
(§5) Thereafter, the relative expression levels of the target genes upon N-acetylglutamic acid treatment were calculated by the ΔΔCt method using the Cp values obtained by real-time PCR.

[3] = system: rice; assay: High-temperature stress resistance in rice (fresh weight of aboveground part), Example 3; format: in vivo, rice (variety: Nipponbare); details: 0.5 mM in medium, 24 h before 44° C. for 3 hours, then 22° C. 3 days
Description: A wild-type rice strain (the variety: Nipponbare) was used as an experimental material. Seeds were purchased from Nouken (https://nouken-seed.shop-pro.jp/).
A liquid medium consisting of a ½ Murashige and Skoog Plant Salt Mixture (Nacalai) was used as a growth medium.
With the use of a 50-ml Falcon tube, rice seeds were sterilized for 30 minutes with the use of a Kitchen Haiter® liquid (Kao Corporation) diluted to one-half concentration with distilled water for 30 minutes and washed 5 times with sterile distilled water. The tube was laid down, sterile distilled water was introduced thereinto in an amount that would sufficiently soak the washed seeds, and culture was performed in an incubator for 3 days to germinate the seeds. The incubator was maintained at a temperature of 30° C. for a daily cycle of 16 hours light and 8 hours darkness.
The growth medium was dispensed at 3 ml/well on a 12-well microplate (IWAKI) 3 days after the initiation of incubation, 3 grains of the germinated seeds were inoculated in each well, and the resultants were handled as experimental materials. […]
High-temperature treatment was performed with the use of an incubator. […] Thereafter, the plate was incubated in an incubator maintained at 22° C. for 3 days, plants were collected, and the fresh weight of the aboveground part excluding seeds and roots was quantified.

[4] = system: ZAT12; assay: ZAT12 gene expression by real-time PCR, Example 11; format: in vivo; details: Arabidopsis thaliana; 0.4 mM, 22° C. for 2 hours; read-out: ZAT12 expression level, increase vs control
Description: as §1, §2, §3, §4, §5

**Q.** Which fold induction at 500 µM [1] does the source give for `CC(=O)N[C@@H](CCC(=O)O)C(=O)O` [N-acetylglutamic acid] here?
**A.** 2.9

**Q.** And the fold induction at 400 µM [2]?
**A.** 28

**Q.** And the “decrease in the fresh weight of the aboveground part caused by high-temperature treatment” value [3]?
**A.** suppressed to a significant extent

**Q.** And the fold induction at 400 µM [4]?
**A.** 37
